Patent US12677825B2, “Composition for protecting islet transplantation” (LG CHEM, LTD., priority 2020, dated 2026)

Tests used:
[1] = tested on: STZ-induced diabetic hIAPP+/− FVB/N mice; experiment: Marginal mass islet transplantation after serum-deprived culture with or without Compound 1; format: in vivo, mouse
Method: A marginal mass renal subcapsular islet transplantation model was used to assess the in vivo islet function of hIAPP^+/− mice. To induce diabetes, 180 mg/kg of streptozotocin (STZ, Sigma-Aldrich) was administered to 8- to 10-week-old FVB/N mice. Mice were considered to have diabetes when two consecutive blood glucose level readings were higher than 300 mg/dL. Equal amounts (400 IEQ of islets per recipient) of islets isolated from hIAPP^+/− mice were allocated to the following two groups: culture medium supplemented with 0.625% BSA (BSA group) and 0.625% BSA plus Compound 1 (BSA+Compound 1 group) to evaluate the combined effect of Compound 1 on islet mass and function during ex vivo culture. After culture for 72 hours, islets were transplanted into the renal subscapular space of diabetic hIAPP^+/− mice. The IE number was calculated using the Ricordi algorithm by classifying islets according to their diameter. After islet transplantation, non-fasting blood glucose levels were measured three times a week for the first 2 weeks and twice a week for the last 2 weeks.
At 4 weeks after transplantation, the transplantation site on the kidney of mouse were removed and embedded in paraffin. Immunohistochemical staining is briefly explained in the following. After deparaffinization, 4-μm tissue sections were stained with the polyclonal guinea pig anti-insulin antibody (1:1000, A0546, DAKO, Denmark), glucacon (1:500, ab92517, abcam, United Kingdom) and amyloid (1:2500, #44-344, Invitrogen). Stained slides were observed using an Olympus BX40 light microscope (Olympus, Japan) with […] numeric aperture and ×40/0.75 numeric aperture objectives. Photographic images were collected with a digital camera (Olympus DP50) and analyzed using the Image-Pro Plus 5.1 software.
For quantification of the DAB-labeled β-cells, all slides were imaged at 10× on a Vectra 3.0 automated quantitative pathology imaging system and analyzed using inForm software (all from Perkin-Elmer, Waltham, MA, USA). The transplanted renal tissue sections were scanned for image acquisition and then to set the transplanted tissue segmentation, a number of representative regions of transplanted islet cells and regions to be excluded from the analysis such as renal tissues were examined by learn-by-example interface. For the β-cell segmentation, a spectral library was used to identify the hematoxylin-stained nuclei and the DAB-stained cytoplasm (β-cells) within the transplanted tissue. With these training sets, the algorithm for identifying only the DAB-stained cells in the transplanted tissue was verified. All the captured 10× images were analyzed, and the DAB-stained transplanted β-cells were counted.

[2] = tested on: islets from hIAPP+/− FVB/N mice; experiment: Serum-deprived culture of mouse islets (viability, ROS); format: cell-based; conditions: dose-dependent 0.1 μM to 20 μM
Method: (§1) Purified hIAPP^+/− FVB/N and C57BL/6J mouse were suspended in RPMI 1640 (Gibco, Grand Island, NY, USA) containing 100 IU/mL penicillin and 100 μg/mL streptomycin, and cultured at 37° C. in a fully humidified 5% CO2 atmosphere. Purified NHP islets were suspended in CMRL 1066 medium (Coming Life Sciences, Tewksbury, MA; catalog number 99-663-CV) containing 100 IU/mL penicillin and 100 μg/mL streptomycin, and cultured at 37° C. in a fully humidified 5% CO2 atmosphere. […]
The viability of islets was evaluated using Alamar blue staining according to the manufacturer's protocol (Invitrogen, Grand Island, NY, USA). […] The fluorescence intensity of each well was measured at 570/585 nm (excitation/emission) using a GloMax-Multi Plus Detection System (Promega, Fitchburg, WI, USA), and the values were normalized to a blank.
The oxidative stress levels in hIAPP^+/− mouse islets were determined right after islet isolation and after ex vivo culture of isolated islets. The oxidative stress of the islets was quantified using a fluorescence-based intracellular ROS detection method and by estimating the concentration of malondialdehyde (MDA), a by-product of lipid peroxidation. The formation of total ROS, superoxide ion and nitric oxide was determined using a reactive oxygen species detection kit (ENZ-51011, Enzo Life Sciences, Farmingdale, New York, USA). […]

[3] = tested on: islets from hIAPP+/− mouse; experiment: GSIS assay after serum-deprived culture; format: cell-based; conditions: Compound 1 added to medium during serum-deprived culture; FIG. 6E
Method: as §1
After hand-picking and washing with PBS, islets were seeded on 12-mm diameter insert wells (Merck Millipore, Billerica, MA, USA) with 10 islets per well, and preincubated with 60 mg/dL glucose in Kreb's-Ringer buffer (KRB: 129 mM NaCl, 4.8 mM KCl, 2.5 mM CaCl2, 1.2 mM KH2PO4, 5 mM NaHCO3, 10 mM HEPES, and 0.2% BSA) for 90 mM at 37° C. […] Insulin release into the supernatant by the mouse islets was measured by ELISA (ALPCO, Salem, NH, USA) and a multiplex kit (Merck Millipore), respectively.

O=S1(=O)CCN(Cc2cc(NC3CCOCC3)c3[nH]c(-c4ccccc4)cc3c2)CC1 [Compound 1]
insulin positive area in the grafted tissue ([1]; islets cultured 72 hours with Compound 1, vs control group, FIG. 7F): greater | posttransplant glucose levels ([1]; islets cultured 72 hours with Compound 1, vs control, FIG. 7B): significantly better | diabetes reversal rate ([1]; islets cultured 72 hours with Compound 1, vs control, FIG. 7C): significantly better | glucose levels during IPGTT ([1]; islets cultured 72 hours with Compound 1, vs control, FIG. 7D): significantly better | AUC of glucose during IPGTT ([1]; islets cultured 72 hours with Compound 1, vs control, FIG. 7E): significantly better | relative cell viability ([2]; FIG. 4D): significantly increased | serum deprivation-induced ROS ([2]; FIG. 4F): decreased | stimulation index [3]: significantly increased
